Measurements from patent US20260159520A1, “HETEROBIFUNCTIONAL COMPOUNDS AND METHODS OF TREATING DISEASE” (Halda Therapeutics OpCo, Inc., priority 2022, published 2026).

Experiments:
Format in all cases: cell-based
[1] = tested on: T-Rex 293 cell line SC3 cells lacking increased expression of androgen receptor protein; test: Cellular growth inhibition, T-Rex 293 SC3 cells without doxycycline; settings: not exposed to doxycycline, 72 hours, CellTiter-Glo 2.0
Outline: (§1)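 Doxycycline (10 ng/mL) was either included or omitted to toggle wild-type androgen receptor expression in SC3 cells, a T-Rex 293 clone, grown in stripped-serum, phenol red-free medium. After 72 hours with compound, viable cells were quantified by CellTiter-Glo 2.0.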

T47D cells = test: Cellular growth inhibition assay for T47D cells; settings: Homo sapiens, 72 hours, CellTiter-Glo 2.0
Outline: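 Luminescence from CellTiter-Glo 2.0 after 72 h of compound exposure gives the viability signal. Cells grew in insulin-supplemented (0.2 units/mL) DMEM with 10% FBS and were treated one day after seeding at 0.5% DMSO. GI50 values come from four-parameter nonlinear regression.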

[2] = tested on: T-Rex 293 cell line SC3 cells having increased expression of androgen receptor protein; test: Cellular growth inhibition, T-Rex 293 SC3 cells with doxycycline (increased androgen receptor expression); settings: with 10 ng/mL doxycycline (increased androgen receptor), 72 hours, CellTiter-Glo 2.0
Outline: as §1

VCaP cells = test: Cellular growth inhibition assay for VCaP cells; settings: Homo sapiens, 72 hours, CellTiter-Glo 2.0

| Compound | GI50 [1] [nM] | GI50 (T47D cells) [nM] | GI50 [2] [nM] | GI50 (VCaP cells) [nM] |
| --- | --- | --- | --- | --- |
| CCc1cnn2c(NCc3ccc(N4CCC(N5CCN(C6CN(c7ncc(C(=O)N[C@H]8C(C)(C)[C@H](Oc9ccc(C#N)c(Cl)c9)C8(C)C)cn7)C6)CC5)CC4)nc3)cc(N3CCCC[C@H]3CCO)nc12 [Compound I-86] | < 100 | < 500 | < 100 | < 100 |
| CC1(C)[C@H](NC(=O)c2cnc(N3CCC(CN4CCN(CCN5C/C=C/CCOc6cccc(c6)-c6ccnc(n6)Nc6cccc(c6)C5)CC4)CC3)nc2)C(C)(C)[C@H]1Oc1ccc(C#N)c(Cl)c1 [Compound I-94] | 1000 to 3500 | > 3000 | 100 to 1000 | > 3500 |
| Cc1ncc(-c2nc(Nc3ccc(C(=O)N4CC[C@H](N(C)CCOC5CCN(c6ncc(C(=O)N[C@H]7C(C)(C)[C@H](Oc8ccc(C#N)c(Cl)c8)C7(C)C)cn6)CC5)C4)cc3)ncc2F)n1C(C)C [Compound I-95, N-[3-(3-chloro-4-cyano-phenoxy)-2,2,4,4-tetramethyl-cyclobutyl]-2-[4-[2-[[(3S)-1-[4-[[5-fluoro-4-(3-isopropyl-2-methyl-imidazol-4-yl)pyrimidin-2-yl]amino]benzoyl]pyrrolidin-3-yl]-methyl-amino]ethoxy]-1-piperidyl]pyrimidine-5-carboxamide] | 1000 to 3500 | 500 to 1500 | 1000 to 3500 | 1000 to 3500 |
| Cc1ncc(-c2nc(Nc3ccc(C(=O)N4CC[C@H](N(C)CCOCCOCCOC5CCN(c6ncc(C(=O)N[C@H]7C(C)(C)[C@H](Oc8ccc(C#N)c(Cl)c8)C7(C)C)cn6)CC5)C4)cc3)ncc2F)n1C(C)C [Compound I-96] | 1000 to 3500 | 1500 to 3000 | 100 to 1000 | 1000 to 3500 |
| Cc1ncc(-c2nc(Nc3ccc(C(=O)N4CC[C@H](N(C)CCOCCOCCOCCOCCOC5CCN(c6ncc(C(=O)N[C@H]7C(C)(C)[C@H](Oc8ccc(C#N)c(Cl)c8)C7(C)C)cn6)CC5)C4)cc3)ncc2F)n1C(C)C [Compound I-97] | 1000 to 3500 | 1500 to 3000 | 1000 to 3500 | 1000 to 3500 |
| CCc1cnn2c(NCc3ccc(OCCCN4CCN(CC5CCN(c6ccc(C(=O)N[C@H]7C(C)(C)[C@H](Oc8ccc(C#N)c(Cl)c8)C7(C)C)cc6)CC5)CC4)nc3)cc(N3CCCC[C@@H]3CCO)nc12 [II-1, N-((1r,3r)-3-(3-chloro-4-cyanophenoxy)-2,2,4,4-tetramethylcyclobutyl)-4-(4-((4-(3-((5-(((3-ethyl-5-((R)-2-(2-hydroxyethyl)piperidin-1-yl)pyrazolo[1,5-a]pyrimidin-7-yl)amino)methyl)pyridin-2-yl)oxy)propyl)piperazin-1-yl)methyl)piperidin-1-yl)benzamide] | 100 to 1000 | < 500 | < 100 | < 100 |
